Values quoted from earlier work as cited in patent US11389398B2, “Gastroretentive treatment of nocturnal symptoms and morning akinesia in subjects with parkinson's disease” (priority 2019, dated 2022).
Like-named read-outs stand apart in the source and are kept apart here.

N[C@@H](Cc1ccc(O)c(O)c1)C(=O)O [levodopa, 3-hydroxy-L-Tyrosine]
delay in the identification of circulating plasma levodopa levels after meals (controlled release tablets (Contin 1998)): 30 to 75 min | delay in the identification of circulating plasma levodopa levels after meals (immediate release tablets (Baruzzi 1987)): 29 to 60 min
